According to ChEMBL document CHEMBL4052697, “Chimeric analogs of human β-defensin 1 and θ-defensin disrupt pre-established bacterial biofilms” (2017):
Values after ≈ are worked out from the molar mass of the structure shown. Active and inactive are the calls of the source. The rule behind the calls is not given here.

Columns and labels:
Format in all cases: functional
[1] = test system: Escherichia coli; assay: Bactericidal activity against Escherichia coli MG1655 planktonic forms
[2] = test system: Escherichia coli; assay: Antibiofilm activity against pre-established 36 hrs old bacterial biofilms of Escherichia coli MG1655 incubated for 4 hrs by XTT assay
[3] = test system: Staphylococcus aureus; assay: Bactericidal activity against Staphylococcus aureus NCTC 8530 planktonic forms
[4] = test system: Staphylococcus aureus; assay: Antibiofilm activity against pre-established 36 hrs old bacterial biofilms of Staphylococcus aureus NCTC 8530 incubated for 4 hrs by XTT assay

| SMILES | MBC [1] [µM] | MBEC [2] | MBC [3] [µM] | MBEC [4] |
| --- | --- | --- | --- | --- |
| CCCCCCCCCCCC(=O)N[C@@H](C)C(=O)N[C@H](C(=O)N[C@@H](Cc1ccc(O)cc1)C(=O)N[C@@H](CCCNC(=N)N)C(=O)N[C@H](C(=O)NCC(=O)N[C@@H](CCCNC(=N)N)C(=O)N[C@@H](C)C(=O)N[C@H](C(=O)N[C@@H](CCCNC(=N)N)C(=O)N[C@@H](CCC(=O)O)C(=O)N[C@@H](CO)C(=O)N[C@@H](CC(C)C)C(=O)N[C@@H](CO)C(=O)NCC(=O)N[C@H](C(=O)N[C@@H](CCC(=O)O)C(=O)N[C@H](C(=O)N[C@@H](CO)C(=O)NCC(=O)N[C@@H](CCCNC(=N)N)C(=O)N[C@@H](CC(C)C)C(=O)N[C@@H](Cc1ccc(O)cc1)C(=O)N[C@@H](CCCNC(=N)N)C(=O)N[C@@H](CC(C)C)C(=O)N[C@@H](CCCNC(=N)N)C(=O)O)[C@@H](C)CC)C(C)C)[C@@H](C)O)[C@@H](C)O)[C@@H](C)O | 20 (≈ 63 µg/mL) | inactive | 2 (≈ 6.3 µg/mL) | inactive |
| CCCCCCCCCCCCCC(=O)N[C@@H](CCC(=O)O)C(=O)N[C@@H](CC(C)C)C(=O)N[C@@H](CC(=O)O)C(=O)N[C@H](CCCNC(=N)N)C(=O)N[C@H](C(=O)NCC(=O)N[C@@H](Cc1ccc(O)cc1)C(=O)NCC(=O)N[C@H](C(=O)N[C@@H](C)C(=O)N[C@H](CCCNC(=N)N)C(=O)N[C@H](CCCNC(=N)N)C(=O)N[C@@H](CCCCN)C(=O)N[C@@H](CCCCN)C(=O)N[C@@H](CCCNC(=N)N)C(=O)O)[C@@H](C)O)[C@@H](C)CC | 5 (≈ 10.1 µg/mL) | inactive | 10 (≈ 20.3 µg/mL) | inactive |
| CCCCCCCCCCCCCC(=O)N[C@@H](C)C(=O)N[C@H](C(=O)N[C@@H](Cc1ccc(O)cc1)C(=O)N[C@H](CCCNC(=N)N)C(=O)N[C@H](C(=O)NCC(=O)N[C@H](CCCNC(=N)N)C(=O)N[C@@H](C)C(=O)N[C@H](C(=O)N[C@H](CCCNC(=N)N)C(=O)N[C@@H](CCC(=O)O)C(=O)N[C@@H](CO)C(=O)N[C@@H](CC(C)C)C(=O)N[C@@H](CO)C(=O)NCC(=O)N[C@H](C(=O)N[C@@H](CCC(=O)O)C(=O)N[C@H](C(=O)N[C@@H](CO)C(=O)NCC(=O)N[C@H](CCCNC(=N)N)C(=O)N[C@@H](CC(C)C)C(=O)N[C@@H](Cc1ccc(O)cc1)C(=O)N[C@H](CCCNC(=N)N)C(=O)N[C@@H](CC(C)C)C(=O)N[C@@H](CCCNC(=N)N)C(=O)O)[C@@H](C)CC)C(C)C)[C@@H](C)O)[C@@H](C)O)[C@@H](C)O | 5 (≈ 15.9 µg/mL) | inactive | 7.5 (≈ 23.8 µg/mL) | inactive |
| CCCCCCCCCCCCCC(=O)N[C@@H](C)C(=O)N[C@@H](Cc1ccccc1)C(=O)N[C@H](C(=O)N[C@H](CCCNC(=N)N)C(=O)N[C@H](CCCNC(=N)N)C(=O)N[C@H](CCCNC(=N)N)C(=O)N[C@@H](CO)C(=O)N[C@@H](Cc1ccc(O)cc1)C(=O)N[C@@H](CO)C(=O)N[C@H](C(=O)N[C@@H](CCC(=O)O)C(=O)N[C@@H](Cc1ccc(O)cc1)C(=O)N[C@@H](CO)C(=O)N[C@@H](Cc1ccc(O)cc1)C(=O)NCC(=O)N[C@H](C(=O)N[C@H](C(=O)N[C@H](C(N)=O)C(C)C)[C@@H](C)O)[C@@H](C)O)[C@@H](C)O)[C@@H](C)O | 20 (≈ 47.1 µg/mL) | inactive | 50 (≈ 118 µg/mL) | inactive |
| CCCCCCCCCCCCCC(=O)N[C@@H](C)C(=O)N[C@H](C(=O)N[C@@H](Cc1ccc(O)cc1)C(=O)N[C@@H](CCCNC(=N)N)C(=O)N[C@H](C(=O)NCC(=O)N[C@@H](CCCNC(=N)N)C(=O)N[C@@H](C)C(=O)N[C@H](C(=O)N[C@@H](CCCNC(=N)N)C(=O)N[C@@H](CCC(=O)O)C(=O)N[C@@H](CO)C(=O)N[C@@H](CC(C)C)C(=O)N[C@@H](CO)C(=O)NCC(=O)N[C@H](C(=O)N[C@@H](CCC(=O)O)C(=O)N[C@H](C(=O)N[C@@H](CO)C(=O)NCC(=O)N[C@@H](CCCNC(=N)N)C(=O)N[C@@H](CC(C)C)C(=O)N[C@@H](Cc1ccc(O)cc1)C(=O)N[C@@H](CCCNC(=N)N)C(=O)N[C@@H](CC(C)C)C(=O)N[C@@H](CCCNC(=N)N)C(=O)O)[C@@H](C)CC)C(C)C)[C@@H](C)O)[C@@H](C)O)[C@@H](C)O | 5 (≈ 15.9 µg/mL) | inactive | 7.5 (≈ 23.8 µg/mL) | inactive |
| CC[C@H](C)[C@H](NC(=O)[C@H](CCC(=O)O)NC(=O)[C@@H](NC(=O)CNC(=O)[C@H](CO)NC(=O)[C@H](CC(C)C)NC(=O)[C@H](CO)NC(=O)[C@H](CCC(=O)O)NC(=O)[C@H](CCCNC(=N)N)NC(=O)[C@@H](NC(=O)[C@H](C)NC(=O)[C@H](CCCNC(=N)N)NC(=O)CNC(=O)[C@@H](NC(=O)[C@H](CCCNC(=N)N)NC(=O)[C@H](Cc1ccc(O)cc1)NC(=O)[C@@H](NC(=O)[C@H](C)N)[C@@H](C)O)[C@@H](C)O)[C@@H](C)O)C(C)C)C(=O)N[C@@H](CO)C(=O)NCC(=O)N[C@@H](CCCNC(=N)N)C(=O)N[C@@H](CC(C)C)C(=O)N[C@@H](Cc1ccc(O)cc1)C(=O)N[C@@H](CCCNC(=N)N)C(=O)N[C@@H](CC(C)C)C(=O)N[C@@H](CCCNC(=N)N)C(=O)O | 50 (≈ 148 µg/mL) | inactive | > 100 | inactive |
| CC[C@H](C)[C@H](NC(=O)[C@H](CCC(=O)O)NC(=O)[C@@H](NC(=O)CNC(=O)[C@H](CO)NC(=O)[C@H](CC(C)C)NC(=O)[C@H](CO)NC(=O)[C@H](CCC(=O)O)NC(=O)[C@@H](CCCNC(=N)N)NC(=O)[C@@H](NC(=O)[C@H](C)NC(=O)[C@@H](CCCNC(=N)N)NC(=O)CNC(=O)[C@@H](NC(=O)[C@@H](CCCNC(=N)N)NC(=O)[C@H](Cc1ccc(O)cc1)NC(=O)[C@@H](NC(=O)[C@H](C)N)[C@@H](C)O)[C@@H](C)O)[C@@H](C)O)C(C)C)C(=O)N[C@@H](CO)C(=O)NCC(=O)N[C@H](CCCNC(=N)N)C(=O)N[C@@H](CC(C)C)C(=O)N[C@@H](Cc1ccc(O)cc1)C(=O)N[C@H](CCCNC(=N)N)C(=O)N[C@@H](CC(C)C)C(=O)N[C@@H](CCCNC(=N)N)C(=O)O | 50 (≈ 148 µg/mL) | inactive | > 100 | inactive |
| CCCCCCCCCCCC(=O)N[C@@H](C)C(=O)N[C@H](C(=O)N[C@@H](Cc1ccc(O)cc1)C(=O)N[C@H](CCCNC(=N)N)C(=O)N[C@H](C(=O)NCC(=O)N[C@H](CCCNC(=N)N)C(=O)N[C@@H](C)C(=O)N[C@H](C(=O)N[C@H](CCCNC(=N)N)C(=O)N[C@@H](CCC(=O)O)C(=O)N[C@@H](CO)C(=O)N[C@@H](CC(C)C)C(=O)N[C@@H](CO)C(=O)NCC(=O)N[C@H](C(=O)N[C@@H](CCC(=O)O)C(=O)N[C@H](C(=O)N[C@@H](CO)C(=O)NCC(=O)N[C@H](CCCNC(=N)N)C(=O)N[C@@H](CC(C)C)C(=O)N[C@@H](Cc1ccc(O)cc1)C(=O)N[C@H](CCCNC(=N)N)C(=O)N[C@@H](CC(C)C)C(=O)N[C@@H](CCCNC(=N)N)C(=O)O)[C@@H](C)CC)C(C)C)[C@@H](C)O)[C@@H](C)O)[C@@H](C)O | 10 (≈ 31.5 µg/mL) | inactive | 20 (≈ 63 µg/mL) | inactive |
